Test results taken from ChEMBL document CHEMBL1201862, “PubChem BioAssay data set” (2004).
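Interpolation was linear, between the two tested concentrations surrounding the appropriate level; five concentrations were tested over 48 hours in 96-well plates. GI50: concentration for 50% inhibition of growth.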 The source made the active and inactive calls. Cut-off read from the data, not from the text of the source: active = GI50 up to about 1.1 µM and inactive = higher.

Experiments:
Test in all cases: growth of human tumour cells (NCI), 48 h
SF-268 = tested on: SF-268
SK-OV-3 = tested on: SK-OV-3
SK-MEL-5 = tested on: SK-MEL-5
SN12C = tested on: SN12C
MOLT-4 = tested on: MOLT-4
HOP-92 = tested on: HOP-92
HCC 2998 = tested on: HCC 2998
SF-295 = tested on: SF-295
IGROV-1 = tested on: IGROV-1
NCI-H460 = tested on: NCI-H460
HL-60 = tested on: HL-60
OVCAR-3 = tested on: OVCAR-3
LOX IMVI = tested on: LOX IMVI
ACHN = tested on: ACHN
UACC-62 = tested on: UACC-62
NCI-H226 = tested on: NCI-H226
SNB-19 = tested on: SNB-19
Hs-578T = tested on: Hs-578T
PC-3 = tested on: PC-3
BT-549 = tested on: BT-549

| Compound | GI50 (SF-268) | GI50 (SK-OV-3) | GI50 (SK-MEL-5) | GI50 (SN12C) | GI50 (MOLT-4) | GI50 (HOP-92) | GI50 (HCC 2998) | GI50 (SF-295) | GI50 (IGROV-1) | GI50 (NCI-H460) | GI50 (HL-60) | GI50 (OVCAR-3) | GI50 (LOX IMVI) | GI50 (ACHN) | GI50 (UACC-62) | GI50 (NCI-H226) | GI50 (SNB-19) | GI50 (Hs-578T) | GI50 (PC-3) | GI50 (BT-549) |
| --- | --- | --- | --- | --- | --- | --- | --- | --- | --- | --- | --- | --- | --- | --- | --- | --- | --- | --- | --- | --- |
| COc1ccc(Nc2nc3ccc(C(F)(F)F)cc3nc2-c2ccccc2)cc1OC | 92.7 µM (inactive) | > 100 µM (inactive) | 35.8 µM (inactive) | 38 µM (inactive) | 22 µM (inactive) | 1.08 µM (active) | 14.6 µM (inactive) | 17.4 µM (inactive) | 60.7 µM (inactive) | 16.4 µM (inactive) | 36.1 µM (inactive) | 54.7 µM (inactive) | 16.1 µM (inactive) | 28.6 µM (inactive) | 66.8 µM (inactive) | 28.6 µM (inactive) | – | – | – | – |
| O=C(CCN1CCCCC1)C(=Cc1ccccc1)C(=O)CCN1CCCCC1 | > 78.9 µM (inactive) | > 100 µM (inactive) | > 100 µM (inactive) | > 74.8 µM (inactive) | 18.6 µM (inactive) | 42.8 µM (inactive) | > 100 µM (inactive) | > 100 µM (inactive) | > 100 µM (inactive) | > 100 µM (inactive) | 21.7 µM (inactive) | 3.74 µM (inactive) | 38.7 µM (inactive) | 9.73 µM (inactive) | 31.4 µM (inactive) | > 100 µM (inactive) | > 100 µM (inactive) | – | – | – |
| Clc1cccc(Cl)c1C1SCc2nc3ccccc3n21 (configuration not stated) | > 100 µM (inactive) | > 100 µM (inactive) | 9.04 µM (inactive) | > 100 µM (inactive) | 19.1 µM (inactive) | 9.48 µM (inactive) | > 100 µM (inactive) | > 100 µM (inactive) | 37.2 µM (inactive) | 48.6 µM (inactive) | 3.97 µM (inactive) | > 100 µM (inactive) | > 100 µM (inactive) | > 100 µM (inactive) | 50.1 µM (inactive) | > 100 µM (inactive) | > 100 µM (inactive) | – | – | – |
| O=C(NCCCC/N=c1/cccccc1NCCCCNC(=O)OCc1ccccc1)OCc1ccccc1 | 25.6 µM (inactive) | 20.5 µM (inactive) | 16.4 µM (inactive) | 18.8 µM (inactive) | 15.3 µM (inactive) | 3.14 µM (inactive) | 15.7 µM (inactive) | 13.5 µM (inactive) | 20.9 µM (inactive) | 11.5 µM (inactive) | 13.2 µM (inactive) | 14.3 µM (inactive) | 16.4 µM (inactive) | 23.2 µM (inactive) | 19.4 µM (inactive) | 16.4 µM (inactive) | 23.8 µM (inactive) | – | – | – |
| Nn1c(S)nnc1C12CC3CC(CC(C3)C1)C2 | > 100 µM (inactive) | > 100 µM (inactive) | > 100 µM (inactive) | > 100 µM (inactive) | > 100 µM (inactive) | > 100 µM (inactive) | > 100 µM (inactive) | > 100 µM (inactive) | > 100 µM (inactive) | > 100 µM (inactive) | > 100 µM (inactive) | > 100 µM (inactive) | > 100 µM (inactive) | > 100 µM (inactive) | > 100 µM (inactive) | > 100 µM (inactive) | > 100 µM (inactive) | > 100 µM (inactive) | > 100 µM (inactive) | – |
| N#CC(c1nc2ccccc2s1)c1nc(Cl)ncc1Br (configuration not stated) | 34 µM (inactive) | 36.1 µM (inactive) | 19 µM (inactive) | 30.6 µM (inactive) | 72.4 µM (inactive) | 18.2 µM (inactive) | – | 42.2 µM (inactive) | 28.9 µM (inactive) | 46 µM (inactive) | – | 27.2 µM (inactive) | 29.3 µM (inactive) | 28.2 µM (inactive) | – | 39.5 µM (inactive) | 40.6 µM (inactive) | – | – | 25.2 µM (inactive) |
| COc1ccc2nc3c([N+](=O)[O-])ccc(NCCCN(C)C)c3c(N)c2c1 | 1.45 µM (inactive) | 1.45 µM (inactive) | 1.87 µM (inactive) | 1.6 µM (inactive) | 0.276 µM (active) | 1.87 µM (inactive) | – | 1.37 µM (inactive) | 1.21 µM (inactive) | 1.21 µM (inactive) | 1.61 µM (inactive) | 1.49 µM (inactive) | 1.59 µM (inactive) | 1.14 µM (inactive) | 1.82 µM (inactive) | 1.99 µM (inactive) | 2.01 µM (inactive) | 2.78 µM (inactive) | 1.4 µM (inactive) | – |
| CC(O[Si](c1ccccc1)(c1ccccc1)C(C)(C)C)[C@H](NC(=O)OC(C)(C)C)C(=O)O (some centres not stated) | 57.3 µM (inactive) | 30.4 µM (inactive) | 21.6 µM (inactive) | – | 18.1 µM (inactive) | 29.9 µM (inactive) | 36.2 µM (inactive) | 19.8 µM (inactive) | 20.6 µM (inactive) | 55.6 µM (inactive) | 27.3 µM (inactive) | – | – | 30.8 µM (inactive) | – | – | 36.1 µM (inactive) | 57.1 µM (inactive) | 26.6 µM (inactive) | – |
| O=C(NC(C(F)(F)F)(C(F)(F)F)P(=O)(Cc1ccccc1)Cc1ccccc1)C(C(F)(F)F)C(F)(F)F | 23.3 µM (inactive) | 31.8 µM (inactive) | 15.4 µM (inactive) | 17.7 µM (inactive) | 16.9 µM (inactive) | – | 27.5 µM (inactive) | 20.7 µM (inactive) | 18.5 µM (inactive) | 27.7 µM (inactive) | 22.4 µM (inactive) | 31.6 µM (inactive) | 18.1 µM (inactive) | 19.7 µM (inactive) | 27.2 µM (inactive) | 13.4 µM (inactive) | 27.7 µM (inactive) | 55.7 µM (inactive) | 21.5 µM (inactive) | – |
| CC1(C)O[C@@H](CCl)C[C@H](C#N)O1 | > 100 µM (inactive) | > 100 µM (inactive) | > 100 µM (inactive) | > 100 µM (inactive) | > 100 µM (inactive) | > 100 µM (inactive) | > 100 µM (inactive) | > 100 µM (inactive) | > 100 µM (inactive) | > 100 µM (inactive) | > 100 µM (inactive) | > 100 µM (inactive) | > 100 µM (inactive) | > 100 µM (inactive) | > 100 µM (inactive) | 97.1 µM (inactive) | > 100 µM (inactive) | – | – | – |
| NC1CC(=O)c2c(Br)csc21 (configuration not stated) | 39.3 µM (inactive) | > 100 µM (inactive) | 61.9 µM (inactive) | 27 µM (inactive) | 46.6 µM (inactive) | – | 19.2 µM (inactive) | – | 33 µM (inactive) | 41 µM (inactive) | 39.2 µM (inactive) | 50.6 µM (inactive) | – | 52 µM (inactive) | 21.3 µM (inactive) | – | 36.3 µM (inactive) | – | 39.3 µM (inactive) | 33 µM (inactive) |
| Cn1ncc2c(Nc3ccc(Cl)cc3)c3ccccc3nc21 | 20.3 µM (inactive) | 20.5 µM (inactive) | 13.6 µM (inactive) | 16 µM (inactive) | 11.4 µM (inactive) | 17.6 µM (inactive) | 22.9 µM (inactive) | 17.7 µM (inactive) | 21.2 µM (inactive) | 18.7 µM (inactive) | 23.4 µM (inactive) | 18.7 µM (inactive) | 15.1 µM (inactive) | 17 µM (inactive) | 15.1 µM (inactive) | 17.3 µM (inactive) | 18 µM (inactive) | – | – | – |
| CC12CC(=O)C3C(C(=O)C1)C32C (configuration not stated) | > 100 µM (inactive) | > 100 µM (inactive) | > 100 µM (inactive) | > 100 µM (inactive) | > 100 µM (inactive) | – | > 100 µM (inactive) | > 100 µM (inactive) | > 100 µM (inactive) | > 100 µM (inactive) | – | > 100 µM (inactive) | > 100 µM (inactive) | > 100 µM (inactive) | > 100 µM (inactive) | > 100 µM (inactive) | > 100 µM (inactive) | – | > 100 µM (inactive) | > 100 µM (inactive) |
| Cc1ccccc1NC(=O)C(=O)CC(=O)C1CCOC1=O (configuration not stated) | > 100 µM (inactive) | > 100 µM (inactive) | > 100 µM (inactive) | > 100 µM (inactive) | – | > 100 µM (inactive) | > 100 µM (inactive) | > 100 µM (inactive) | > 100 µM (inactive) | > 100 µM (inactive) | > 100 µM (inactive) | > 100 µM (inactive) | > 100 µM (inactive) | > 100 µM (inactive) | > 100 µM (inactive) | > 100 µM (inactive) | > 100 µM (inactive) | – | – | – |
| COc1ccc(/C=C(\NC(=O)c2ccccc2)c2nc3ccccc3[nH]2)cc1OC | > 100 µM (inactive) | > 100 µM (inactive) | > 100 µM (inactive) | > 100 µM (inactive) | 79.1 µM (inactive) | > 100 µM (inactive) | > 100 µM (inactive) | > 100 µM (inactive) | > 100 µM (inactive) | > 100 µM (inactive) | > 100 µM (inactive) | > 100 µM (inactive) | > 100 µM (inactive) | > 100 µM (inactive) | > 100 µM (inactive) | > 100 µM (inactive) | > 100 µM (inactive) | – | – | – |
| CCN(CC)CC1CCCCN1CC(=O)N1c2cc(Cl)ccc2NC(=O)CC1C (configuration not stated) | > 100 µM (inactive) | 0.0849 µM (active) | > 100 µM (inactive) | > 100 µM (inactive) | > 100 µM (inactive) | > 100 µM (inactive) | > 100 µM (inactive) | – | – | > 100 µM (inactive) | > 100 µM (inactive) | > 100 µM (inactive) | > 100 µM (inactive) | > 100 µM (inactive) | 55.3 µM (inactive) | > 100 µM (inactive) | > 100 µM (inactive) | – | – | – |
| COC(=O)/C(C#N)=C1\NC(=O)c2ccccc21 | > 100 µM (inactive) | > 100 µM (inactive) | > 100 µM (inactive) | > 100 µM (inactive) | > 100 µM (inactive) | > 100 µM (inactive) | > 100 µM (inactive) | > 100 µM (inactive) | > 100 µM (inactive) | > 100 µM (inactive) | > 100 µM (inactive) | > 100 µM (inactive) | > 100 µM (inactive) | > 100 µM (inactive) | > 100 µM (inactive) | > 100 µM (inactive) | > 100 µM (inactive) | – | – | – |
